According to article PMC3057395 (ChemMedChem, 2009):
Where two headings read alike, the source gives them in different places.

Molecular target: mouse PKCα (Mus musculus, UniProt P20444)
Assay: PKC binding assay

| Compound | Ki (read-out: Ki [nM] ± SEM) [nM] | Ki [nM] |
| --- | --- | --- |
| CC(C)[C@H]1C(=O)N[C@H](CO)Cc2ccc(O)cc2N1C [compound 2, 9-Hydroxy-5-hydroxymethyl-2-isopropyl-1-methyl-(2S,5S)-1,4,5,6-tetrahydro-2H-benzo[e][1,4] diazocin-3-one] | 4840 ± 320 | – |
| C=CCCCCCOc1ccc2c(c1)N(C)[C@@H](C(C)C)C(=O)N[C@H](CO)C2 [compound 3, 9-Hept-6-enyloxy-5-hydroxymethyl-2-isopropyl-1-methyl-1,4,5,6-tetrahydro-2H-benzo[e][1,4] diazocin-3-one] | – | 5.4 ± 0.1 |
| CC(=O)SCCCOc1ccc2c(c1)N(C)[C@@H](C(C)C)C(=O)N[C@H](CO)C2 [compound 9, Thioacetic acid S-[3-(5-hydroxymethyl-2-isopropyl-1-methyl-3-oxo-1,2,3,4,5,6-hexahydro-benzo[e] [1,4]diazocin-9-yloxy)-propyl] ester] | – | 21 ± 2.8 |
| CC(=O)SCCCCOc1ccc2c(c1)N(C)[C@@H](C(C)C)C(=O)N[C@H](CO)C2 [compound 10, Thioacetic acid S-[4-(5-hydroxymethyl-2-isopropyl-1-methyl-3-oxo-1,2,3,4,5,6-hexahydro-benzo [e][1,4]diazocin-9-yloxy)-butyl] ester] | – | 15.8 ± 0.8 |
| CC(=O)SCCCCCOc1ccc2c(c1)N(C)[C@@H](C(C)C)C(=O)N[C@H](CO)C2 [compound 11, Thioacetic acid S-[5-(5-hydroxymethyl-2-isopropyl-1-methyl-3-oxo-1,2,3,4,5,6-hexahydro-benzo[e] [1,4]diazocin-9-yloxy)-pentyl] ester] | – | 6.6 ± 0.2 |
| CC(=O)SCCCCCCCOc1ccc2c(c1)N(C)[C@@H](C(C)C)C(=O)N[C@H](CO)C2 [compound 13, Thioacetic acid S-[7-(5-hydroxymethyl-2-isopropyl-1-methyl-3-oxo-1,2,3,4,5,6-hexahydrobenzo[e] [1,4]diazocin-9-yloxy)-heptyl] ester] | – | 4.5 ± 0.4 |
| CC(=O)SCCCCCCCCOc1ccc2c(c1)N(C)[C@@H](C(C)C)C(=O)N[C@H](CO)C2 [compound 14, Thioacetic acid S-[8-(5-hydroxymethyl-2-isopropyl-1-methyl-3-oxo-1,2,3,4,5,6-hexahydro-benzo[e] [1,4]diazocin-9-yloxy)-octyl] ester] | – | 2.8 ± 0.5 |
